Laboratory results from patent US20240158446A1, “CYCLIC COMPOUND HAVING SELECTIVE INHIBITORY ACTION ON KRAS OVER HRAS AND NRAS” (CHUGAI SEIYAKU KABUSHIKI KAISHA, priority 2021, published 2024).
Read-outs that look alike come from different tables or passages of the source. Where a SMILES comes first, the peptide text is derived from it. Bridges are numbered along the chain shown (N, C = ends). [ ]: non-standard residue; d: D form. The star is where a group is joined. hPhe(3-Cl-4-CF3) = N[C@@H](CCc1ccc(C(F)(F)F)c(Cl)c1)C(=O)O; NPrPhe(4-CF3) = CCCN[C@@H](Cc1ccc(C(F)(F)F)cc1)C(=O)O; NPrPhe(4-Me) = CCCN[C@@H](Cc1ccc(C)cc1)C(=O)O; NMeGly(cPent) = CN[C@H](C(=O)O)C1CCCC1; Hyp = O=C(O)[C@@H]1C[C@@H](O)CN1; NMeD = CN[C@@H](CC(=O)O)C(=O)O; NMeL = CN[C@@H](CC(C)C)C(=O)O; Morpholide = C1CN(*)CCO1; Ac5c = NC1(C(=O)O)CCCC1; Aze = O=C(O)[C@@H]1CCN1; Ac4c = NC1(C(=O)O)CCC1; NEtG = CCNCC(=O)O; Sar = CNCC(=O)O

Columns and labels:
[1] = biological target: GDP-bound NRAS wild-type protein (Homo sapiens, UniProt P01111); assay: Binding to NRAS by surface plasmon resonance (SPR), Single Cycle Kinetics; conditions: for NRAS/KRAS (ratio of KD value for NRAS to KD value for KRAS) / NRAS/KRAS (ratio of KD value with respect to NRAS to KD value with respect to KRAS): SPR, GDP-bound NRAS wild-type protein vs GDP-bound KRAS wild-type protein; for NRAS/KRAS (ratio of KD value with respect to GDP-bound NRAS wild-type protein to KD value with respect to KRAS): SPR KD ratio NRAS/KRAS, class symbols
[2] = biological target: GDP-bound HRAS wild-type protein (Homo sapiens, UniProt P01112); assay: Binding to HRAS by surface plasmon resonance (SPR), Single Cycle Kinetics; conditions: for HRAS/KRAS (ratio of KD value for HRAS to KD value for KRAS) / HRAS/KRAS (ratio of KD value with respect to HRAS to KD value with respect to KRAS): SPR, GDP-bound HRAS wild-type protein vs GDP-bound KRAS wild-type protein; for HRAS/KRAS (ratio of KD value with respect to GDP-bound HRAS wild-type protein to KD value with respect to KRAS): SPR KD ratio HRAS/KRAS, class symbols
[3] = biological target: GDP-bound KRAS wild-type protein (Homo sapiens, UniProt P01116); assay: Binding to KRAS by surface plasmon resonance (SPR), Single Cycle Kinetics; conditions: GDP-bound KRAS wild-type protein, read-out: KRAS KD
[4] = SPR Single Cycle Kinetics, 1:1 binding model

Sequence of GDP-bound HRAS wild-type protein (P01112 whole entry): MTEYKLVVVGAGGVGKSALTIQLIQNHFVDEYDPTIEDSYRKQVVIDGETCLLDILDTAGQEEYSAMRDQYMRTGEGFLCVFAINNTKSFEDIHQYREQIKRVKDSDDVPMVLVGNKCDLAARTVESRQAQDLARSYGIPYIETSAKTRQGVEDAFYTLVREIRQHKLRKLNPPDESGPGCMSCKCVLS
Sequence of GDP-bound NRAS wild-type protein (P01111 whole entry): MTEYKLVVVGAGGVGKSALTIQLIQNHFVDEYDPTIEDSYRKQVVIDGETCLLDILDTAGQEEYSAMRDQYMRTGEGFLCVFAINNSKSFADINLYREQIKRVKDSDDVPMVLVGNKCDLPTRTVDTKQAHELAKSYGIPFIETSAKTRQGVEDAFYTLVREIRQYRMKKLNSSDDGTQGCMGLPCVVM
Sequence of GDP-bound KRAS wild-type protein (P01116 whole entry): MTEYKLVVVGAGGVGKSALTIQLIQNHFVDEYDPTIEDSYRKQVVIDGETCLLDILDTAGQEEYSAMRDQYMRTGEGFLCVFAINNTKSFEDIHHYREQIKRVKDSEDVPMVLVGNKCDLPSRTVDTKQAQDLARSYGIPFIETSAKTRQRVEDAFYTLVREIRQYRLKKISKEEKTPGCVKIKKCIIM

Row | Structure (SMILES) | NRAS/KRAS (ratio of KD value for NRAS to KD value for KRAS) [1] | HRAS/KRAS (ratio of KD value for HRAS to KD value for KRAS) [2] | Kd ([3]; SPR, Single Cycle Kinetics) [nM] | Kd [3, 4] [nM] | NRAS/KRAS (ratio of KD value with respect to GDP-bound NRAS wild-type protein to KD value with respect to KRAS) [1] | HRAS/KRAS (ratio of KD value with respect to GDP-bound HRAS wild-type protein to KD value with respect to KRAS) [2] | NRAS/KRAS (ratio of KD value with respect to NRAS to KD value with respect to KRAS) [1] | HRAS/KRAS (ratio of KD value with respect to HRAS to KD value with respect to KRAS) [2]
1 | CCO[C@@H]1C[C@H]2C(=O)NC3(CC(C)(C)C3)C(=O)N(C)[C@@H](C(CC)CC)C(=O)N(C)[C@H](C(=O)N(C)C)CC(=O)N(C)[C@@H](CC)C(=O)N[C@@H]([C@@H](C)CC)C(=O)N(C)CC(=O)N(C)[C@H]3C/C=C\CCN(C3=O)[C@@H](Cc3ccc(C)cc3)C(=O)N(C)CC(=O)N[C@@H](CCc3ccc(Cl)c(Cl)c3)C(=O)N2C1 [PP2188] | AA (a compound having 20 or more is denoted as AA) | A (a compound having 10 or more and less than 20 is denoted as A) | 0.71 | – | – | – | – | –
2 | CCCN1C(=O)CN(CC)C(=O)CN(C)C(=O)[C@H]([C@@H](C)CC)NC(=O)[C@H](CC(C)C)N(C)C(=O)C[C@@H](C(=O)N2CCOCC2)N(C)C(=O)[C@H](C2CCCC2)N(C)C(=O)C2(CCCC2)NC(=O)[C@@H]2CCCN2C(=O)[C@H](CCc2ccc(C(F)(F)F)c(Cl)c2)NC(=O)CN(C)C(=O)[C@@H]1Cc1ccc(C)cc1 [PP0065] ([NMeL]I[Sar][NEtG][NPrPhe(4-Me)][Sar][hPhe(3-Cl-4-CF3)]P[Ac5c][NMeGly(cPent)][NMeD]-Morpholide; lactam N-11) | C (A compound having a KD ratio of 0.1 or more and less than 3 is denoted as C) | C (A compound having a KD ratio of 0.1 or more and less than 3 is denoted as C) | – | 0.54 | – | – | – | –
3 | CCO[C@@H]1C[C@H]2C(=O)NC3(CC(C)(C)C3)C(=O)N(C)[C@@H](C3CCCC3)C(=O)N(C)[C@H](C(=O)N(C)C)CC(=O)N(C)[C@@H](CC)C(=O)N[C@@H]([C@@H](C)CC)C(=O)N(C)CC(=O)N(C)[C@H]3C/C=C\CCN(C3=O)[C@@H](Cc3ccc(Cl)cc3F)C(=O)N(C)CC(=O)N[C@@H](CCc3cc(F)c(C(F)(F)F)c(F)c3)C(=O)N2C1 [PP2048] | A (a compound having 10 or more and less than 20 is denoted as A) | B (a compound having 3 or more and less than 10 is denoted as B) | 0.071 | – | – | – | – | –
4 | CCC[C@H]1C(=O)N[C@@H]([C@@H](C)CC)C(=O)N(C)CC(=O)N(C)[C@H]2C/C=C\CCN(C2=O)[C@@H](Cc2ccc(C)cc2)C(=O)N(C)CC(=O)N[C@@H](CCc2ccc(C(F)(F)F)c(Cl)c2)C(=O)N2C[C@H](OCC)C[C@H]2C(=O)NC2(CC(C)(C)C2)C(=O)N(C)[C@@H](C(CC)CC)C(=O)N(C)[C@H](C(=O)N(C)C)CC(=O)N1C [PP2146] | A (a compound having 10 or more and less than 20 is denoted as A) | A (a compound having 10 or more and less than 20 is denoted as A) | 0.33 | – | – | – | – | –
5 | CCO[C@@H]1C[C@H]2C(=O)NC3(CCCC3)C(=O)N(C)[C@@H](C3CCCC3)C(=O)N(C)[C@H](C(=O)N3CCOCC3)CC(=O)N(C)[C@@H](CC(C)C)C(=O)N[C@@H]([C@@H](C)CC)C(=O)N(C)CC(=O)N(C)[C@H]3CC(C)=CCN(C3=O)[C@@H](Cc3ccc(C(F)(F)F)cc3)C(=O)N(C)CC(=O)N[C@@H](CCc3cc(F)c(C(F)(F)F)c(F)c3)C(=O)N2C1 [PP1038] | C (A compound having a KD ratio of 0.1 or more and less than 3 is denoted as C) | C (A compound having a KD ratio of 0.1 or more and less than 3 is denoted as C) | 3 | – | – | – | – | –
6 | CCCN1C(=O)[C@@H]2CCN2C(=O)CN(C)C(=O)[C@H]([C@@H](C)CC)NC(=O)[C@H](CC(C)C)N(C)C(=O)C[C@@H](C(=O)N(C)C)NC(=O)[C@H](C2CCCC2)N(C)C(=O)C2(CCCC2)NC(=O)[C@@H]2C[C@@H](OCC)CN2C(=O)[C@H](CCc2ccc(C(F)(F)F)c(Cl)c2)NC(=O)CN(C)C(=O)[C@@H]1Cc1ccc(C(F)(F)F)cc1 [PP0389] ([NMeL]I[Sar][Aze][NPrPhe(4-CF3)][Sar][hPhe(3-Cl-4-CF3)][Hyp](Et)[Ac5c][NMeGly(cPent)]D-NMe2; lactam N-11) | C (A compound having a KD ratio of 0.1 or more and less than 3 is denoted as C) | B (a compound having 3 or more and less than 10 is denoted as B) | – | 0.16 | – | – | – | –
7 | CCC[C@H]1C(=O)N[C@@H]([C@@H](C)CC)C(=O)N(C)CC(=O)N(C)[C@H]2C/C=C\CCN(C2=O)[C@@H](Cc2ccc(C(F)(F)F)cc2)C(=O)N(C)CC(=O)N[C@@H](CCc2ccc(Cl)c(Cl)c2)C(=O)N2C[C@H](OCC)C[C@H]2C(=O)NC2(CC(C)(C)C2)C(=O)N(C)[C@@H](CC2CC2)C(=O)N(C)[C@H](C(=O)N(C)C)CC(=O)N1C [PP2811] | – | – | – | 0.82 | A (a compound having 10 or more and less than 20 is denoted as A) | A (a compound having 10 or more and less than 20 is denoted as A) | – | –
8 | CCO[C@@H]1C[C@H]2C(=O)NC3(CC(C)(C)C3)C(=O)N(C)[C@@H](C(CC)CC)C(=O)N(C)[C@H](C(=O)N(C)C)CC(=O)N(C)[C@@H](C(C)C)C(=O)N[C@@H]([C@@H](C)CC)C(=O)N(C)CC(=O)N(C)[C@H]3C/C=C\CCN(C3=O)[C@@H](Cc3ccc(C(F)(F)F)cc3)C(=O)N(C)CC(=O)N[C@@H](CCc3ccc(C(F)(F)F)c(OC)c3)C(=O)N2C1 [PP2165] | A (a compound having 10 or more and less than 20 is denoted as A) | A (a compound having 10 or more and less than 20 is denoted as A) | 0.51 | – | – | – | – | –
9 | CCO[C@@H]1C[C@H]2C(=O)NC3(CCC3)C(=O)N(C)[C@@H](C3CCCC3)C(=O)N(CC)[C@H](C(=O)N(C)C)CC(=O)N(C)[C@@H](CC)C(=O)N[C@@H]([C@@H](C)CC)C(=O)N(C)CC(=O)N(C)[C@H]3CCCCCN(C3=O)[C@@H](Cc3ccc(C(F)(F)F)cc3)C(=O)N(C)CC(=O)N[C@@H](CCc3cc(F)c(C(F)(F)F)c(F)c3)C(=O)N2C1 [PP0633] | – | – | – | 2.3 | – | – | B (a compound having 3 or more and less than 10 is denoted as B) | B (a compound having 3 or more and less than 10 is denoted as B)
10 | CCC[C@H]1C(=O)N[C@@H]([C@@H](C)CC)C(=O)N(C)CC(=O)N(C)[C@H]2C/C=C\CCN(C2=O)[C@@H](Cc2ccc(C)cc2)C(=O)N(C)CC(=O)N[C@@H](CCc2ccc(Cl)c(OC)c2)C(=O)N2C[C@H](OCC)C[C@H]2C(=O)NC2(CC(C)(C)C2)C(=O)N(C)[C@@H](C2CCCC2)C(=O)N(C)[C@H](C(=O)N(C)C)CC(=O)N1C [PP2790] | – | – | – | 0.54 | A (a compound having 10 or more and less than 20 is denoted as A) | A (a compound having 10 or more and less than 20 is denoted as A) | – | –
11 | CCCO[C@@H]1C[C@H]2C(=O)NC3(CCC3)C(=O)N(C)[C@@H](C3CCCC3)C(=O)N(C)[C@H](C(=O)N3CCOCC3)CC(=O)N(C)[C@@H](CC(C)C)C(=O)N[C@@H]([C@@H](C)CC)C(=O)N(C)CC(=O)N(C)[C@H]3CCCCCN(C3=O)[C@@H](Cc3ccc(C(F)(F)F)cc3)C(=O)N(C)CC(=O)N[C@@H](CCc3cc(F)c(C(F)(F)F)c(F)c3)C(=O)N2C1 [PP1161] | B (a compound having 3 or more and less than 10 is denoted as B) | B (a compound having 3 or more and less than 10 is denoted as B) | 0.6 | – | – | – | – | –
12 | CC[C@H](C)[C@@H]1NC(=O)[C@H](CC(C)C)N(C)C(=O)C[C@@H](C(=O)N2CCCCC2)N(C)C(=O)[C@H](C2CCCC2)N(C)C(=O)C2(CCCC2)NC(=O)[C@@H]2CCCN2C(=O)[C@H](CCc2cc(F)c(C(F)(F)F)c(F)c2)NC(=O)CN(C)C(=O)[C@H](Cc2ccc(C(F)(F)F)cc2)N2CCCCC[C@@H](C2=O)N(C)C(=O)CN(C)C1=O [PP0510] | – | – | – | 12 | – | – | B (a compound having 3 or more and less than 10 is denoted as B) | B (a compound having 3 or more and less than 10 is denoted as B)
13 | CCCN1C(=O)CN(C)C(=O)CN(C)C(=O)[C@H]([C@@H](C)CC)NC(=O)[C@H](CC(C)C)N(C)C(=O)C[C@@H](C(=O)N(C)C)N(C)C(=O)[C@H](C2CCCC2)N(C)C(=O)C2(CCC2)NC(=O)[C@@H]2C[C@@H](OCC)CN2C(=O)[C@H](CCc2ccc(C(F)(F)F)c(Cl)c2)NC(=O)CN(C)C(=O)[C@@H]1Cc1ccc(C(F)(F)F)cc1 [PP0416] ([NMeL]I[Sar][Sar][NPrPhe(4-CF3)][Sar][hPhe(3-Cl-4-CF3)][Hyp](Et)[Ac4c][NMeGly(cPent)][NMeD]-NMe2; lactam N-11) | – | – | – | 0.027 | – | – | B (a compound having 3 or more and less than 10 is denoted as B) | C (A compound having a KD ratio of 0.1 or more and less than 3 is denoted as C)
